Experiments:
Assay type in all cases: cell-based, human
BEAS-2B cells [1] = assay: MTT cytotoxicity assay, BEAS-2B cells; conditions: 24 h
Text: (§1) MTT assay was utilized to evaluate the anticancer activity of Ir1-Ir6 toward A549 cells (human non-small cell lung cancer cells, one of the deadliest types of cancer in both developing and developed countries) along with cisplatin (metal anticancer drug widely used in clinic) as a control and compared with the cytotoxicity against noncancerous BEAS-2B cells (epithelial cells isolated from pathological sections of normal bronchial epithelium from non-cancerous individuals). […] Additionally, the substitution sites of coumarin (6- and 7-) have little effect on these complexes, however, the peripheral substituents show a significant effect on the structure−activity. […] In addition, the data is even better than the reported traditional cyclometallic Ir^III complexes (usually depicted as [(ppy)2Ir (L^L)], L^L = N^N, C^N, C^O, O^N, P^P, etc., Supplementary Table S3). […]
(§2) After plating 5000 cells per well in 96-well plates, the cells were preincubated in drug-free media at 310 K for 24 h before adding different concentrations of drugs to be tested. […] Afterwards, 100 μL of DMSO was transferred into each well to dissolve the purple formazan, and results were measured using a microplate reader (DNM-9606, Perlong Medical, Beijing, China) at an absorbance of 570 nm. […]

A549 cells [2] = assay: MTT cytotoxicity assay, A549 cells; conditions: 24 h
Text: as §1, §2

A549 cells [3] = assay: Mitochondrial membrane potential (JC-1) flow cytometry, A549 cells; conditions: A549, positive control CCCP (5 μM), 20 min
Text: Mitochondria, the main intracellular energy source, play an important role in the process of apoptosis. Disruption of mitochondrial membrane potential (MMP) is usually identified as the early signals of cell apoptotic. JC-1, a liphile cationic fluorescent dye, is generally used to detect the change of MMP, and it emits strong red fluorescence in the normal mitochondrial matrix and green fluorescence after depolarization activation in apoptotic cells ([Antonicka et al., 2017]). In this study, flow cytometry was utilized to analyze this change after the treatment of Ir2 at a gradient concentration. […] In addition, intracellular reactive oxygen species (ROS) is mainly produced and stored in mitochondria, and the accumulation of intracellular ROS can lead to apoptosis ([Romero-Canelón et al., 2015]). A549 and BEAS-2B cells were stained with DCFH-DA after incubated with Ir2 (1.0 × IC50 and 2.0 × IC50) for 24 h (Figure 8B). The intracellular ROS levels increased in a dose-dependent manner. […]
(§3) Analysis of the changes of mitochondrial potential in cells after exposure to Ir2 were carried out using the mitochondrial membrane potential assay kit with JC-1 (Beyotime Institute of Biotechnology, Shanghai, China) according to the manufacturer’s instructions. […] The samples were immediately analyzed by a flow cytometer (ACEA NovoCyte, Hangzhou, China). […]

BEAS-2B cells [4] = assay: Mitochondrial membrane potential (JC-1) flow cytometry, BEAS-2B cells; conditions: positive control CCCP (5 μM), 20 min
Text: Mitochondria, the main intracellular energy source, play an important role in the process of apoptosis. Disruption of mitochondrial membrane potential (MMP) is usually identified as the early signals of cell apoptotic. JC-1, a liphile cationic fluorescent dye, is generally used to detect the change of MMP, and it emits strong red fluorescence in the normal mitochondrial matrix and green fluorescence after depolarization activation in apoptotic cells ([Antonicka et al., 2017]). In this study, flow cytometry was utilized to analyze this change after the treatment of Ir2 at a gradient concentration. […] In addition, intracellular reactive oxygen species (ROS) is mainly produced and stored in mitochondria, and the accumulation of intracellular ROS can lead to apoptosis ([Romero-Canelón et al., 2015]). A549 and BEAS-2B cells were stained with DCFH-DA after incubated with Ir2 (1.0 × IC50 and 2.0 × IC50) for 24 h (Figure 8B). The intracellular ROS levels increased in a dose-dependent manner.
as §3

N.N.[Cl][Pt][Cl] [Cisplatin, reference compound]
IC50 (BEAS-2B cells [1]): 38.4 ± 2.8 µM | IC50 (A549 cells [2]): 21.3 ± 1.7 µM

N#CC(C#N)=NNc1cccc(Cl)c1 [Positive Control, carbonyl cyanide 3-chlorophenylhydrazone, reference compound]
Percentage (%) JC-1 Aggregates (A549 cells [3]): 22.63±0.55% | Percentage (%) JC-1 Monomers (depolarized cells) (A549 cells [3]): 77.37±0.55% | Percentage (%) JC-1 Aggregates (BEAS-2B cells [4]): 11.60±0.51% | Percentage (%) JC-1 Monomers (BEAS-2B cells [4]): 88.40±0.33%
